System: swelling of rat toes induced by egg-white
Test: Swelling of rat toes induced by egg-white injection
Type: in vivo, rats
Settings: 0.3 g ointment per toe, repeated after 0.5 hour
Description: 50 SD rats, 150 g±10 g, were divided randomly into five groups. The volume of the toes at the same side of rats among the 5 groups was measured. 10% of egg white was injected into the toes, 0.2 ml each toe. After that, rats of two groups were anointed respectively with 0.15 g and 0.3 g of an ointment of total coumarins (containing 10% total coumarins) at each toe. Rats of other two groups were respectively anointed with 0.3 g of a blank ointment and 0.3 g of an ointment of anthralin at each toe. The rest one group was treated nothing as a control. 0.5 hour later, the above treatment was repeated. At 1st, 2nd, 4th, and 6th hour the volume of the toes were measured. The difference of the volume was regarded as the degree of the swelling of the toes.

In the case of O=C1c2c(O)cccc2Cc2cccc(O)c21 [Anthralin, anthralin], the “Degree of toe swelling (volume increase)” value (1 h) is reported as 0.408 ± 0.201 mL, the “Degree of toe swelling (volume increase)” value (2 h) is reported as 0.391 ± 0.209 mL and the “Degree of toe swelling (volume increase)” value (4 h) is reported as 0.375 ± 0.189 mL. The “Degree of toe swelling (volume increase)” value (6 h) was 0.351 ± 0.165 mL.
